Eight compounds from ChEMBL document CHEMBL2086344, “Halicloic acids A and B isolated from the marine sponge Haliclona sp. collected in the Philippines inhibit indoleamine 2,3-dioxygenase” (J Nat Prod, 2012) can be followed below.

Calls of active or inactive are those of the source. No cut-off for these calls is given here.

The target in experiment [1] is T1, Indoleamine 2,3-dioxygenase 1 (Homo sapiens, UniProt P14902). Kind of experiment: Inhibition of recombinant human IDO expressed in Escherichia coli using L-tryptophan as substrate at 200 uM after 60 mins by spectrophotometry.
Target sequence in this assay (P14902 whole entry, looked up): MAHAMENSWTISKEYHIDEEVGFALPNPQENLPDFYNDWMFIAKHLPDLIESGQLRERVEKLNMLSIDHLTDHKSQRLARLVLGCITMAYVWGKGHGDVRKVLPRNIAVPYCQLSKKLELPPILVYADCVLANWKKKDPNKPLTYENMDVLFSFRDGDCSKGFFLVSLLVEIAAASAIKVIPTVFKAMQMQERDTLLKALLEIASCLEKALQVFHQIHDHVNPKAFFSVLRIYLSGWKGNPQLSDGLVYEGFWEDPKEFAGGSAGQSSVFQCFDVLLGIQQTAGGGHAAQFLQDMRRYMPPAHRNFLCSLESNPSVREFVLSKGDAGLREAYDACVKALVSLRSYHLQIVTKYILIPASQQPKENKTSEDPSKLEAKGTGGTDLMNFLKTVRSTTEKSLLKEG
The target in experiment [2] is T1, Indoleamine 2,3-dioxygenase 1. Kind of experiment: Inhibition of recombinant human IDO expressed in Escherichia coli using L-tryptophan as substrate after 60 mins by spectrophotometry.
Target sequence in this assay (P14902 whole entry): as the sequence (P14902 whole entry, looked up) above

Regarding `O=Cc1ccccc1`, the inhibition entry in experiment [1] is “inactive”. Turning to `CC1=CCC[C@@H](C)[C@]1(C)CC[C@@]1(C)[C@@H]2CC[C@]3(C)[C@H](CC[C@]4(C)c5c(C(O)C(=O)O)ccc(O)c5C[C@@H]34)[C@@]2(C)CC[C@@H]1O` (relative stereo), the IC50 (as a rule, the midpoint of a concentration-inhibition curve) in experiment [2] was 11 µM. On the same count and under the same terms, the same measure for `CC1=CCC[C@@H](C)[C@]1(C)CC[C@@]1(C)[C@@H]2CC[C@]3(C)[C@H](CC[C@]4(C)c5c(C=O)ccc(O)c5C[C@@H]34)[C@@]2(C)CC[C@@H]1O`: 29 µM. Take `O=Cc1ccc(O)cc1`: in experiment [1], the inhibition result was “inactive”. Turning to `CC1(C)CCC[C@]2(C)O[C@H]3CC[C@@]4(C)[C@@H](CC[C@]5(C)[C@@H]4CC[C@]4(C)c6c(C(O)C(=O)O)ccc(O)c6C[C@@H]54)[C@]3(C)CC[C@@H]12` (stereo partly drawn) [HALICLOIC ACID A], the IC50 in experiment [2] worked out at 10 µM. For the compound `O=C(O)C(O)c1ccc(O)cc1` (stereo not drawn), the inhibition entry in experiment [1] is “inactive”. For the compound `CC1(C)CCC[C@]2(C)O[C@H]3CC[C@@]4(C)[C@@H](CC[C@]5(C)[C@@H]4CC[C@]4(C)c6c(C=O)ccc(O)c6C[C@@H]54)[C@]3(C)CC[C@@H]12`, the IC50 in experiment [2] is 53 µM. Turning to `O=C(O)C(O)c1ccccc1` (stereo not drawn), the inhibition entry in experiment [1] is “inactive”.
